Source: PubChem BioAssay (NCI)
Values joined by “and” are separate entries in the source; they are usually repeats but may differ in a detail not shown here. Equal values may be shown once.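 Dose response: 5 concentrations. Exposure: 48 h. Format: 96-well plates. Endpoint: linear interpolation; highest concentration if not reached. GI50 is the concentration that inhibits growth by half. TGI is the concentration that stops growth completely.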

Tests used:
Assay in all cases: DTP human tumour cell line panel, 48 h
A498 renal = tested on: A498 renal
A549 NSCLC = tested on: A549 NSCLC
IGROV1 ovarian = tested on: IGROV1 ovarian
MCF7 breast = tested on: MCF7 breast
MDA-MB-435 = tested on: MDA-MB-435
PC-3 prostate = tested on: PC-3 prostate
SK-OV-3 ovarian = tested on: SK-OV-3 ovarian
UACC-257 melanoma = tested on: UACC-257 melanoma
DLD-1 colon = tested on: DLD-1 colon
DMS 114 small cell lung = tested on: DMS 114 small cell lung

Compound	TGI (A498 renal)	TGI (A549 NSCLC)	TGI (IGROV1 ovarian)	TGI (MCF7 breast)	TGI (MDA-MB-435)	TGI (PC-3 prostate)	TGI (SK-OV-3 ovarian)	TGI (UACC-257 melanoma)	GI50 (A498 renal)	GI50 (A549 NSCLC)	GI50 (IGROV1 ovarian)	GI50 (MCF7 breast)	GI50 (MDA-MB-435)	GI50 (PC-3 prostate)	GI50 (SK-OV-3 ovarian)	GI50 (UACC-257 melanoma)	TGI (DLD-1 colon) [µM]	TGI (DMS 114 small cell lung) [µM]
O=C1C2=Nc3ccccc3C(O)N2c2ccccc21 (centres undefined)	90.9 µM	> 100 µM	> 100 µM	> 100 µM	6.29 µM	> 100 µM	> 100 µM	16.5 µM	–	–	–	–	–	–	–	–	–	–
CC(=O)c1cc2c(cc1Nc1c3ccccc3nc3occ(Cl)c13)OCO2	0.373 µM	–	> 100 µM	> 100 µM	0.161 µM	3.71 µM	> 100 µM	> 100 µM	0.105 µM	0.2 µM	0.185 µM	0.0939 µM	0.0444 µM	0.0856 µM	0.781 µM	> 100 µM	–	–
O=C1c2ccccc2C(=O)c2c(NCCNCCO)ccc(O)c21	19.4 µM	11.2 µM	13.4 µM	–	–	–	13.8 µM	13.5 µM	–	–	–	–	–	–	–	–	15.6	17.4
Cn1cc(C2=C(c3cccnc3)C(=O)NC2=O)c2ccccc21	> 22.9 µM	> 25 µM	> 25 µM	> 25 µM	> 25 µM	> 25 µM	> 25 µM	> 25 µM	9.03 µM	> 25 µM	24.3 µM	8.45 µM	> 25 µM	17.1 µM	> 22.9 µM	> 25 µM	–	–
Cc1c(C(=O)C/C(=N/NC(=O)C[n+]2ccccc2)C(=O)Nc2ccccc2)[n+](=O)c2ccccc2n1O	> 100 µM	> 100 µM	> 100 µM	–	–	–	> 100 µM	> 100 µM	–	–	–	–	–	–	–	–	> 100	> 100
C=CC[P+](c1ccccc1)(c1ccccc1)c1ccccc1	63 µM	> 100 µM	> 100 µM	> 100 µM	19.3 µM	33.5 µM	> 100 µM	6.66 µM	7.09 µM	4.54 µM	9.74 µM	2.84 µM	2.07 µM	1.78 µM	19.2 µM	0.877 µM	–	–
CC1CCN(CCCCCOc2ccc3oc4cc(Cl)ccc4c(=O)c3c2)CC1	12.7 µM	14.4 µM	15.3 µM	14.2 µM	5.23 µM	16.4 µM	15.8 µM	3.22 µM	5.97 µM	7.49 µM	6.71 µM	5.9 µM	1.55 µM	6.89 µM	8.45 µM	1.33 µM	–	–
CN(C)CCOc1ccc(/C(=C(/CCCl)c2ccccc2)c2ccccc2)cc1	3.12 µM	3.24 µM and 29.9 µM	–	–	–	–	5.07 µM	–	0.885 µM	1.27 µM	1.33 µM	0.565 µM	0.894 µM	0.901 µM	1.62 µM	0.943 µM	–	–
CN(C)c1ccc(/C=C2\N=C(c3ccc([N+](=O)[O-])cc3)OC2=O)cc1	> 100 µM	> 100 µM	> 100 µM	> 100 µM	> 100 µM	> 100 µM	> 100 µM	> 100 µM	–	–	–	–	–	–	–	–	–	–
COc1ccc2c(c1)C(=O)C(=O)c1cc(O)c(OC)c(OC)c1-2	10.5 µM and 12.9 µM	12.1 µM and 3.89 µM	1.56 µM and 3.08 µM	1.74 µM and 3.59 µM	0.272 µM and 0.807 µM	2.48 µM and 3.34 µM	7.27 µM and 3.17 µM	1.61 µM and 2.89 µM	5.07 µM	1.96 µM	1.71 µM	1.96 µM	0.291 µM	1.93 µM	1.79 µM	1.55 µM	–	–
CNC(=O)c1ccc2cc(C3(O)CCn4cncc43)ccc2c1 (centres undefined)	> 100 µM	> 100 µM	> 100 µM	> 100 µM	> 100 µM	> 100 µM	> 100 µM	> 100 µM	> 100 µM	> 100 µM	> 100 µM	> 100 µM	> 100 µM	> 100 µM	> 100 µM	> 100 µM	–	–
O=C(CF)N(O)c1ccc(/C=C/c2ccccc2)cc1	2.27 µM	> 100 µM	13 µM	> 100 µM	> 100 µM	> 100 µM	32.1 µM	5.59 µM	0.694 µM	1.17 µM	2.53 µM	0.304 µM	8.48 µM	5.6 µM	7.53 µM	1.67 µM	–	–
CN1CCN(c2ccc3nc(-c4c(N)c5c(F)cccc5[nH]c4=O)[nH]c3c2)CC1	–	2.15 µM and > 3.74 µM and 3.86 µM	4.94 µM and > 3.98 µM and 11.8 µM	2.78 µM and > 4.82 µM and 6.76 µM	2.34 µM and 1.85 µM and 2.61 µM	7.1 µM and > 7.42 µM and 8.59 µM	–	3.26 µM and 2.39 µM and 8.32 µM	0.224 µM and 0.144 µM and 0.135 µM	0.594 µM and 0.451 µM and 0.674 µM	0.325 µM and 0.272 µM and 0.302 µM	0.875 µM and 0.71 µM and 1.21 µM	0.974 µM and 0.535 µM and 1.08 µM	1.16 µM and 1.02 µM and 1.73 µM	0.379 µM and 0.487 µM and 0.515 µM	1.69 µM and 0.83 µM and 2.54 µM	–	–
COc1ccc(C(=O)C(C(=O)C(=O)Nc2ccc(Cl)c(Cl)c2)c2ccc(OC)cc2)cc1 (centres undefined)	> 100 µM	> 100 µM	> 100 µM	–	–	–	–	> 100 µM	–	–	–	–	–	–	–	–	> 100	> 100
O=C(c1ccco1)c1nc2cc(F)ccc2[n+]([O-])c1C(F)(F)F	> 100 µM	> 100 µM	36.7 µM	> 100 µM	44 µM	> 100 µM	> 100 µM	67.3 µM	86.6 µM	34.6 µM	17.9 µM	56.2 µM	19.2 µM	35.3 µM	35.3 µM	22.5 µM	–	–
N#Cc1ccc(N2Cc3ccccc3OC3=C2C(=O)c2c(O)ccc(O)c2C3=O)cc1	4.13 µM	9.76 µM	1.36 µM	2.66 µM	0.579 µM	1.29 µM	11.9 µM	0.818 µM	1.79 µM	2.49 µM	0.497 µM	0.329 µM	0.235 µM	0.357 µM	2.99 µM	0.258 µM	–	–
